Results reported in patent US20240400555A1 (Initial Therapeutics, Inc., priority 2023, published 2024).

Tested on: MV-4-11 cells
Test: Cell Viability Assay in MV-4-11 Cells
Type: cell-based
Conditions: Homo sapiens, MV4-11, 72 h, MV-4-11 cells, 72 h, Cell-Titer Glo; read-out: IC50
Method in brief: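 MV-4-11 cells at 7,000/well in IMDM with 10% FBS, exposed to compound for 72 h. Viability by CellTiter-Glo luminescence, normalized to DMSO as 100%, fitted with a four-parameter curve.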

| IC50 | SMILES |
| --- | --- |
| 0.22 µM | O=C(c1ccc(Nc2nccc(N3CCOCC3)n2)cc1F)N(c1nccc2cc(F)ccc12)[C@@H]1CCCNC1 [Example 560, (R)-2-fluoro-N-(6-fluoroisoquinolin-1-yl)-4-((4-morpholinopyrimidin-2-yl)amino)-N-(piperidin-3-yl)benzamide] |
| 2.6 µM | Cc1cccc2ccnc(N(C(=O)c3ccc(C#N)cc3-c3ccccn3)[C@@H]3CCCNC3)c12 [Example 335, 4-cyano-N-(8-methyl-1-isoquinolyl)-N-[(3R)-3-piperidyl]-2-(2-pyridyl)benzamide] |
| 0.062 µM | [2H]C([2H])([2H])Oc1cc(C)c2c(N(C(=O)c3ccc(-c4nnc(C)s4)nc3)[C@@H]3CCCNC3)nccc2c1 [Example 909] |
| 0.11 µM | Cc1cccc2ccnc(N(C(=O)c3ccc(Nc4nccc(N5CCCC[C@H]5CO)n4)cc3F)[C@@H]3CCCNC3)c12 [Example 960, 2-fluoro-4-((4-((S)-2-(hydroxymethyl)piperidin-1-yl)pyrimidin-2-yl)amino)-N-(8-methylisoquinolin-1-yl)-N—((R)-piperidin-3-yl)benzamide] |
| 0.084 µM | Cc1cn(-c2ccc(C(=O)N(c3nccc4c(F)ccc(C)c34)[C@@H]3CCCNC3)c(F)c2)nn1 [Example 655, (R)-2-fluoro-N-(5-fluoro-8-methylisoquinolin-1-yl)-4-(4-methyl-1H-1,2,3-triazol-1-yl)-N-(piperidin-3-yl)benzamide] |
| 3.6 µM | Cc1nnc(-c2ccc(C(=O)N(c3nccc4sc(C#CCCC(N)=O)cc34)[C@@H]3CCCNC3)c(F)c2)s1 [Example 817, N-[2-(5-amino-5-oxo-pent-1-ynyl)thieno[3,2-c]pyridin-4-yl]-2-fluoro-4-(5-methyl-1,3,4-thiadiazol-2-yl)-N-[(3R)-3-piperidyl]benzamide] |
| 0.18 µM | Cc1cccc2ccnc(N(C(=O)c3ccc(Nc4ncc(CO)cn4)cc3F)[C@@H]3CCCNC3)c12 [Example 322, (R)-2-fluoro-4-((5-(hydroxymethyl)pyrimidin-2-yl)amino)-N-(8-methylisoquinolin-1-yl)-N-(piperidin-3-yl)benzamide] |
| 0.35 µM | Cn1cc(-c2ccc(C(=O)N(c3nccc4c(Cl)csc34)[C@@H]3CCCNC3)c(F)c2)nn1 [Example 678, N-(3-chlorothieno[2,3-c]705yridine-7-yl)-2-fluoro-4-(1-methyltriazol-4-yl)-N-[(3R)-3-piperidyl]benzamide] |
| 0.13 µM | COc1cc(C)c2c(N(C(=O)c3ccc(-c4nnc(C)s4)cn3)[C@@H]3CCCNC3)nccc2c1 [Example 864, N-(6-methoxy-8-methyl-1-isoquinolyl)-5-(5-methyl-1,3,4-thiadiazol-2-yl)-N-[(3R)-3-piperidyl]pyridine-2-carboxamide] |
| 0.13 µM | Cn1cc(-c2ccc(C(=O)N(c3nccc4scc(Cl)c34)[C@@H]3CCCNC3)c(F)c2)nn1 [Example 795, (R)—N-(3-chlorothieno[3,2-c]pyridin-4-yl)-2-fluoro-4-(1-methyl-1H-1,2,3-triazol-4-yl)-N-(piperidin-3-yl)benzamide] |
| 0.12 µM | Cc1cc(Cl)cc2ccnc(N(C(=O)c3ccc(-c4cc(Cl)cnn4)cn3)[C@@H]3CCCNC3)c12 [Example 769, (R)—N-(6-chloro-8-methylisoquinolin-1-yl)-5-(5-chloropyridazin-3-yl)-N-(piperidin-3-yl)picolinamide] |
| 0.064 µM | COCC1CCN(c2ccnc(Nc3ccc(C(=O)N(c4nccc5cccc(C)c45)[C@@H]4CCCNC4)c(F)c3)n2)CC1 [Example 964, (R)-2-fluoro-4-((4-(4-(methoxymethyl)piperidin-1-yl)pyrimidin-2-yl)amino)-N-(8-methylisoquinolin-1-yl)-N-(piperidin-3-yl)benzamide] |
| 0.2 µM | CNC(=O)c1nc(-c2cc3c(N(C(=O)c4ccc(-n5nnc6cccnc65)cc4F)[C@@H]4CCCNC4)nccc3s2)cs1 [Example 527, 4-[4-[[2-fluoro-4-(triazolo[4,5-b]pyridin-3-yl)benzoyl]-[(3R)-3-piperidyl]amino]thieno[3,2-c]pyridin-2-yl]-N-methyl-thiazole-2-carboxamide] |
| 1 µM | Cn1cc(-c2ccc(C(=O)N(c3nccc4cc(Cc5cccnc5)ccc34)[C@@H]3CCCNC3)c(F)c2)nn1 [Example 828, (R)-2-fluoro-4-(1-methyl-1H-1,2,3-triazol-4-yl)-N-(piperidin-3-yl)-N-(6-(pyridin-3-ylmethyl)isoquinolin-1-yl)benzamide] |
| 0.014 µM | Cc1cc(C#CC(C)(C)O)cc2ccnc(N(C(=O)c3ccc(-n4nnc5cccnc54)cc3F)[C@@H]3CCCNC3)c12 [Example 587, (R)-4-(3H-[1,2,3]triazolo[4,5-b]pyridin-3-yl)-2-fluoro-N-(6-(3-hydroxy-3-methylbut-1-yn-1-yl)-8-methylisoquinolin-1-yl)-N-(piperidin-3-yl)benzamide] |
| 0.069 µM | Cc1ccc(F)c2ccnc(N(C(=O)c3ccc(-c4cn(C)nn4)cc3F)[C@@H]3CCCNC3)c12 [Example 761, (R)-2-fluoro-N-(5-fluoro-8-methylisoquinolin-1-yl)-4-(1-methyl-1H-1,2,3-triazol-4-yl)-N-(piperidin-3-yl)benzamide] |

| IC50 | SMILES |
| --- | --- |
| 0.086 µM | Cc1cccc2ccnc(N(C(=O)c3ccc(Nc4nccc(-c5ccccn5)n4)cc3F)[C@@H]3CCCNC3)c12 [Example 728, (R)-2-fluoro-N-(8-methylisoquinolin-1-yl)-N-(piperidin-3-yl)-4-((4-(pyridin-2-yl)pyrimidin-2-yl)amino)benzamide] |
| 0.13 µM | CCC(C)N(C)c1ccnc(Nc2ccc(C(=O)N(c3nccc4cccc(C)c34)[C@@H]3CCCNC3)c(F)c2)n1 (stereo partly drawn) [Example 952, 4-((4-(sec-butyl(methyl)amino)pyrimidin-2-yl)amino)-2-fluoro-N-(8-methylisoquinolin-1-yl)-N—((R)-piperidin-3-yl)benzamide] |
| 0.15 µM | [2H]C([2H])([2H])c1nnc(-c2ccc(C(=O)N(c3nccc4cccc(C)c34)[C@@H]3CCCNC3)c(F)c2)s1 [Example 899, 2-fluoro-N-(8-methyl-1-isoquinolyl)-N-[(3R)-3-piperidyl]-4-[5-(trideuteriomethyl)-1,3,4-thiadiazol-2-yl]benzamide] |
| 0.025 µM | Cc1cc(C)c2c(N(C(=O)c3ccc(-c4cn(C)nn4)cc3F)[C@@H]3CCCNC3)nccc2c1 [Example 702, (R)—N-(6,8-dimethylisoquinolin-1-yl)-2-fluoro-4-(1-methyl-1H-1,2,3-triazol-4-yl)-N-(piperidin-3-yl)benzamide] |
| 0.2 µM | CC(O)c1cccc(-c2cc3c(N(C(=O)c4ccc(-n5nnc6cccnc65)cc4F)[C@@H]4CCCNC4)nccc3s2)c1 (stereo partly drawn) [Example 601, 4-(3H-[1,2,3]triazolo[4,5-b]pyridin-3-yl)-2-fluoro-N-(2-(3-(1-hydroxyethyl)phenyl)thieno[3,2-c]pyridin-4-yl)-N—((R)-piperidin-3-yl)benzamide] |
| 1.3 µM | Cc1nnc(-c2ccc(C(=O)N(c3nccc4sc(C#CCCO)cc34)[C@@H]3CCCNC3)c(F)c2)s1 [Example 818, (R)-2-fluoro-N-(2-(4-hydroxybut-1-yn-1-yl)thieno[3,2-c]pyridin-4-yl)-4-(5-methyl-1,3,4-thiadiazol-2-yl)-N-(piperidin-3-yl)benzamide] |
| 0.24 µM | Cc1cccc2ccnc(N(C(=O)c3ccc(-c4nnc(C5CC5)s4)cc3)[C@@H]3CCCNC3)c12 [Example 790, (R)-4-(5-cyclopropyl-1,3,4-thiadiazol-2-yl)-N-(8-methylisoquinolin-1-yl)-N-(piperidin-3-yl) benzamide] |
| 0.19 µM | Cn1cc(-c2ccc(C(=O)N(c3nccc4sc(-c5ccc(-c6cn[nH]c6)cc5)cc34)[C@@H]3CCCNC3)c(F)c2)nn1 [Example 597] |
| 0.1 µM | CCc1cc(-n2nnc3cccnc32)ccc1C(=O)N(c1nccc2cccc(C)c12)[C@@H]1CCCNC1 [Example 307, (R)-4-(3H-[1,2,3]triazolo[4,5-b]pyridin-3-yl)-2-ethyl-N-(8-methylisoquinolin-1-yl)-N-(piperidin-3-yl)benzamide] |
| 0.26 µM | Cc1nnc(-c2ccc(C(=O)N(c3nccc4c(Cl)ccc(C)c34)[C@@H]3CCCNC3)cc2)s1 [Example 856, N-(5-chloro-8-methyl-1-isoquinolyl)-4-(5-methyl-1,3,4-thiadiazol-2-yl)-N-[(3R)-3-piperidyl]benzamide] |
| 0.25 µM | COCc1c(-c2ccc(C(=O)N(c3nccc4cc(Cl)cc(C)c34)[C@@H]3CCCNC3)c(F)c2)nnn1C [Example 637, (R)—N-(6-chloro-8-methylisoquinolin-1-yl)-2-fluoro-4-(5-(methoxymethyl)-1-methyl-1H-1,2,3-triazol-4-yl)-N-(piperidin-3-yl)benzamide] |
| 0.033 µM | CCCNc1ccnc(Nc2ccc(C(=O)N(c3nccc4cccc(C)c34)[C@@H]3CCCNC3)c(F)c2)n1 [Example 746, (R)-2-fluoro-N-(8-methylisoquinolin-1-yl)-N-(piperidin-3-yl)-4-((4-(propylamino)pyrimidin-2-yl)amino)benzamide] |
| 0.1 µM | COCCc1c(-c2ccc(C(=O)N(c3nccc4cc(Cl)cc(C)c34)[C@@H]3CCCNC3)c(F)c2)nnn1C [Example 636, (R)—N-(6-chloro-8-methylisoquinolin-1-yl)-2-fluoro-4-(5-(2-methoxyethyl)-1-methyl-1H-1,2,3-triazol-4-yl)-N-(piperidin-3-yl)benzamide] |
| 0.2 µM | O=C(c1ccc(Nc2ncccn2)cc1F)N(c1nccc2ccccc12)[C@@H]1CCCNC1 [Example 927, (R)-2-fluoro-N-(isoquinolin-1-yl)-N-(piperidin-3-yl)-4-(pyrimidin-2-ylamino)benzamide] |
| > 10 µM | O=C(O)/C=C/c1cc2c(N(C(=O)c3ccc(-n4nnc5cccnc54)cc3F)[C@@H]3CCCNC3)nccc2s1 [Example 500, (E)-3-[4-[[2-fluoro-4-(triazolo[4,5-b]pyridin-3-yl)benzoyl]-[(3R)-3-piperidyl]amino]thieno[3,2-c]pyridin-2-yl]prop-2-enoic acid] |
| > 7.5 µM | Cc1nnc(-c2ccc(C(=O)N(c3nccc4cc(Cl)cc(C)c34)[C@@H]3CCCNC3)c(Cl)c2)o1 [Example 764, (R)-2-chloro-N-(6-chloro-8-methylisoquinolin-1-yl)-4-(5-methyl-1,3,4-oxadiazol-2-yl)-N-(piperidin-3-yl)benzamide] |
